These results are taken from US20220280614A1 (CASE WESTERN RESERVE UNIVERSITY, priority 2019, published 2022).

This assay deals with male Sprague-Dawley rats (ca. 300 g) rendered diabetic by streptozotocin. The assay is described as follows: Biological activity and pharmacodynamics (blood glucose over time) after subcutaneous injection in diabetic rats. It counts as in vivo, rat. The conditions noted are these: premixed clear solution of SCI-A and SCI-B, unbuffered, pH 4.0, FIGS. 8-10. How it is done:
FIG. 7 is a graph showing blood glucose levels over time for diabetic rats (time 0 blood glucose of 375±20 mg/dl) injected subcutaneously with indicated analogue/300 g body weight.
FIG. 8 is a graph showing blood glucose levels over time for diabetic rats (time 0 blood glucose of 350-400 [±20 mg/dl]) injected subcutaneously with 1 unit of the indicated analog/300 g body weight. ( ? ) diluent control; (●) an SCI-A (SEQ ID NO: 5); (●) an example of an SCI-B (SEQ ID NO: 6) as formulated at neutral pH; and (♦) equimolar premixed clear solution of this SCI-A and this specific SCI-B as formulated in soluble form in an unbuffered solution at pH 4.0. Respective doses: 20 μg of each protein per 300 gram rat (singly); 20 μg and 20 μg in the case of the premixed solution to a total [SCI-A+SCI-B] combined dose of 40 μg.
FIG. 9 is a graph showing blood glucose levels over time for diabetic rats (time 0 blood glucose of 400±20 mg/dl) injected subcutaneously with indicated analogue/300 g body weight. […] Respective doses: 0.75 units SCI-A, 0.25 units SCI-B; and premixture of 0.75 units SCI-A and 0.25 units SCI-B.
FIG. 10 is a graph showing blood glucose levels over time for diabetic rats (time 0 blood glucose of 385±20 mg/dl) injected subcutaneously with indicated analogue/300 g body weight. […] Respective doses: 0.75 units SCI-A, 0.25 units SCI-B; and premixture of 0.75 units SCI-A and 0.25 units SCI-B.
Biological activity and pharmacodynamics were tested in male Sprague-Dawley rats (ca. 300 g) rendered diabetic by streptozotocin (FIG. 7).
Each of the three SCI-B analogues contained a six-residue C domain and an A-domain substitution known in the art to enhance stability and receptor-binding affinity (HisA8). The first SCI-B (SEQ ID NO: 6; FIG. 8) contained C domain sequence EEGPRR (positions 31-36). This analogue also contained insulin-moiety substitutions GluA14 and GluB29. The second example of an SCI-B (SEQ ID NO: 7; FIG. 9) contained C domain sequence EAAAAA (positions 31-36) and insulin-moiety substitutions GluA14, AspB28 and ProB29. […]
For the substance “SEQ ID NO: 6: single-chain insulin analogue SCI-B, C domain EEGPRR, substitutions GluA14 and GluB29; rapid-acting component (FVNQHLCGSHLVEALYLVCGERGFFYTPETEEGPRRGIVEQCCTSICSLEQLENYCN)”, the “effect of premixed SCI-A (SEQ ID NO: 5) on the rapid initial phase of insulin action of the SCI-B component” value was “did not blunt or prevent the premixed SCI-B component from directing a rapid initial phase of insulin action”.

Turning to “SEQ ID NO: 7: single-chain insulin analogue SCI-B, C domain EAAAAA, substitutions GluA14, AspB28 and ProB29 (FVNQHLCGSHLVEALYLVCGERGFFYTDPTEAAAAAGIVEQCCTSICSLEQLENYCN)”, the “effect of premixed SCI-A (SEQ ID NO: 5) on the rapid initial phase of insulin action of the SCI-B component” value is reported as “did not blunt or prevent the premixed SCI-B component from directing a rapid initial phase of insulin action”.

As for “SEQ ID NO: 8: single-chain insulin analogue SCI-B, C domain EAAARA, substitutions GluA14, AspB28 and ProB29 (FVNQHLCGSHLVEALYLVCGERGFFYTDPTEAAARAGIVEQCCTSICSLEQLENYCN)”, the “effect of premixed SCI-A (SEQ ID NO: 5) on the rapid initial phase of insulin action of the SCI-B component” value is “did not blunt or prevent the premixed SCI-B component from directing a rapid initial phase of insulin action”.
